Source: US20220117266A1, “NICKEL CHELATION THERAPY” (priority 2019, published 2022)

Assays:
C. jejuni 81-176 = test: Growth inhibition, liquid 96-well checkerboard (OD600, MIC, MBC); type: cell-based, Campylobacter jejuni; conditions: 24 h
Experimental: Growth inhibition assays: liquid (96-well) plates experiments. This type of experiment can only be conducted with C. jejuni since the gas requirement for C. concisus (H2-enriched microaerobic) is not compatible with the use of 96-well plates. C. jejuni cells were grown as described above, harvested, and resuspended in sterile NaCl (8 g/L) to an OD600 of 0.1, corresponding approximately to 5×10^8 to 1×10^9 cells/mL. […] Wells were serially (2-fold) diluted in each direction (horizontal and vertical) to introduce all combinations. Wells with no DMG or metal compounds served as (positive) growth controls, and wells with no bacteria served as background (negative growth) controls. A typical protocol and loading plan are described in Table 7. The starting inoculum was at OD600 of 0.05, which corresponds approximately to 2.5×10^8 cells/mL to 5×10^8 cells/mL. After 24 hours incubation under microaerobic conditions at 37° C., OD600 was recorded using a 96 well-plate reader (Microtek). […] Resulting growth (or lack of growth) was examined after overnight culturing; the lowest concentration that inhibits 99.9% of the original culture was defined as MBC. MIC and MBC were determined based on tests (plates) done in triplicate.

[1] = tested on: urease activity in K. pneumoniae BAA-2472; test: Urease assay on cell-free extracts of cells grown with DMG; type: biochemical; conditions: overnight
Experimental: Thus, similar to hydrogenase inhibition, it appears DMG-mediated Ni chelation can be used to efficiently block urease activity in Klebsiella.
Urease assays. […] Cells were pelleted at 6,000 rpm for 30 minutes and washed three times with PBS (pH 7.4). Cells were standardized to an optical density (OD600) of 4.5, added to sterile glass beads (0.1 mm diameter, Biospec Products, Bartlesville, Okla.) at a 100% w/v ratio, and frozen at −80° C. The bead and cell mixture was thawed at room temperature and vortexed at 3,200 rpm for six minutes with one minute intervals on ice. The mixture was pelleted at 14,000 rpm for two minutes and the cell-free supernatant was assayed for urease activity using the phenol-hypochlorite method (Weatherburn et al. 1967. Analytical Chemistry 39:971-974). Protein concentration was determined using the BCA protein kit (Thermo Fisher Pierce, Rockford, Ill., USA). Urease activity is expressed as μmoles of NH3 produced per minute per mg of total protein.

[2] = tested on: S. Typhimurium strain 14028; test: Typhoid fever-mouse model (survival, organ burden); type: in vivo, BALB/c mice
Experimental: The bacterial burden in livers and spleens was determined three days after infection (FIG. 5).
Mouse experiments—Infection Experiments. […] Female BALB/c mice (Charles River, Boston, Mass.) were orally inoculated individually with the S. Typhimurium strain ATCC 14028, following previously described methods (Maier et al. 2004 Infect Immun 72:6294-6299; Maier et al. 2014 PLoS One 9:e110187; Lamichhane-Khadka R et al. 2015 Infect Immun 83:311-316). Briefly, S. Typhimurium cells grown overnight in LB were harvested, washed, and suspended in sterile PBS to a final OD of OD600 0.01 (approximately 10^7 CFU/mL) and 0.1-mL volumes (10^6 bacterial cells) were introduced orally into each mouse. […] The mice were observed twice daily, and morbidity was recorded. In addition, a fourth independent experiment was performed to determine organ (liver and spleen) bacterial burdens. In this experiment, two groups of eight mice each were inoculated with S. Typhimurium 14028. […] Infection with S.T. 14028 was done as described above. Mice were euthanized 72 hours after infection. Livers and spleens were removed and homogenized in sterile PBS. Dilutions of the homogenate were plated on bismuth sulfite agar plates (BD DIFCO, Becton Dickinson, Franklin Lakes, N.J.), a selective medium for Salmonella species. Colony forming units (CFU) were counted after overnight incubation of the plates at 37° C.

[3] = oral 3 mg DMG daily, three-day treatment
[4] = oral DMG 3 mg at 24 h and 30 min before and 24 h post infection, burden three days after infection, n=8

`CC(=NO)C(C)=NO` [DMG, dimethylglyoxime] was tested, and the OD600 (C. jejuni 81-176; DMG 0.062 mM + CuSO4 0 uM) was 0.31, the OD600 (C. jejuni 81-176; DMG 0.062 mM + CuSO4 2 uM) was 0.37 and the OD600 (C. jejuni 81-176; DMG 0.062 mM + CuSO4 4 uM) was 0.31. The OD600 (C. jejuni 81-176; DMG 0.062 mM + CuSO4 8 uM) was 0.33, the OD600 (C. jejuni 81-176; DMG 0.062 mM + CuSO4 16 uM) was 0.34 and the OD600 (C. jejuni 81-176; DMG 0.062 mM + CuSO4 32 uM) was 0.24. The OD600 (C. jejuni 81-176; DMG 0.062 mM + CuSO4 64 uM) was 0.22, the OD600 (C. jejuni 81-176; DMG 0.062 mM + CuSO4 128 uM) was 0.24 and the OD600 (C. jejuni 81-176; DMG 0.062 mM + CuSO4 256 uM) was 0.35. It also gave an OD600 (C. jejuni 81-176; DMG 0.062 mM + CuSO4 512 uM) of 0.34, an OD600 (C. jejuni 81-176; DMG 0.062 mM + CuSO4 1024 uM) of 0.47 and an OD600 (C. jejuni 81-176; DMG 0.125 mM + CuSO4 0 uM) of 0.25. For the same compound, the OD600 (C. jejuni 81-176; DMG 0.125 mM + CuSO4 2 uM) was 0.31, the OD600 (C. jejuni 81-176; DMG 0.125 mM + CuSO4 4 uM) was 0.27 and the OD600 (C. jejuni 81-176; DMG 0.125 mM + CuSO4 8 uM) was 0.31. It also gave an OD600 (C. jejuni 81-176; DMG 0.125 mM + CuSO4 16 uM) of 0.33, an OD600 (C. jejuni 81-176; DMG 0.125 mM + CuSO4 32 uM) of 0.26 and an OD600 (C. jejuni 81-176; DMG 0.125 mM + CuSO4 64 uM) of 0.23. For the same compound, the OD600 (C. jejuni 81-176; DMG 0.125 mM + CuSO4 128 uM) was 0.24, the OD600 (C. jejuni 81-176; DMG 0.125 mM + CuSO4 256 uM) was 0.27 and the OD600 (C. jejuni 81-176; DMG 0.125 mM + CuSO4 512 uM) was 0.34. The OD600 (C. jejuni 81-176; DMG 0.125 mM + CuSO4 1024 uM) was 0.47, the OD600 (C. jejuni 81-176; DMG 0.25 mM + CuSO4 0 uM) was 0.26 and the OD600 (C. jejuni 81-176; DMG 0.25 mM + CuSO4 2 uM) was 0.31. For the same compound, the OD600 (C. jejuni 81-176; DMG 0.25 mM + CuSO4 4 uM) was 0.24, the OD600 (C. jejuni 81-176; DMG 0.25 mM + CuSO4 8 uM) was 0.37 and the OD600 (C. jejuni 81-176; DMG 0.25 mM + CuSO4 16 uM) was 0.33. It also gave an OD600 (C. jejuni 81-176; DMG 0.25 mM + CuSO4 32 uM) of 0.25, an OD600 (C. jejuni 81-176; DMG 0.25 mM + CuSO4 64 uM) of 0.22 and an OD600 (C. jejuni 81-176; DMG 0.25 mM + CuSO4 128 uM) of 0.24. For the same compound, the OD600 (C. jejuni 81-176; DMG 0.25 mM + CuSO4 256 uM) was 0.24, the OD600 (C. jejuni 81-176; DMG 0.25 mM + CuSO4 512 uM) was 0.27 and the OD600 (C. jejuni 81-176; DMG 0.25 mM + CuSO4 1024 uM) was 0.30. The OD600 (C. jejuni 81-176; DMG 0.5 mM + CuSO4 0 uM) was 0.22, the OD600 (C. jejuni 81-176; DMG 0.5 mM + CuSO4 2 uM) was 0.31 and the OD600 (C. jejuni 81-176; DMG 0.5 mM + CuSO4 4 uM) was 0.25. For the same compound, the OD600 (C. jejuni 81-176; DMG 0.5 mM + CuSO4 8 uM) was 0.23, the OD600 (C. jejuni 81-176; DMG 0.5 mM + CuSO4 16 uM) was 0.34 and the OD600 (C. jejuni 81-176; DMG 0.5 mM + CuSO4 32 uM) was 0.21. It also gave an OD600 (C. jejuni 81-176; DMG 0.5 mM + CuSO4 64 uM) of 0.19, an OD600 (C. jejuni 81-176; DMG 0.5 mM + CuSO4 128 uM) of 0.20 and an OD600 (C. jejuni 81-176; DMG 0.5 mM + CuSO4 256 uM) of 0.29. The OD600 (C. jejuni 81-176; DMG 0.5 mM + CuSO4 512 uM) was 0.14, the OD600 (C. jejuni 81-176; DMG 0.5 mM + CuSO4 1024 uM) was 0.09 and the OD600 (C. jejuni 81-176; DMG 1 mM + CuSO4 0 uM) was 0.20. It also gave an OD600 (C. jejuni 81-176; DMG 1 mM + CuSO4 2 uM) of 0.27, an OD600 (C. jejuni 81-176; DMG 1 mM + CuSO4 4 uM) of 0.23 and an OD600 (C. jejuni 81-176; DMG 1 mM + CuSO4 8 uM) of 0.21. It also gave an OD600 (C. jejuni 81-176; DMG 1 mM + CuSO4 16 uM) of 0.37, an OD600 (C. jejuni 81-176; DMG 1 mM + CuSO4 32 uM) of 0.24 and an OD600 (C. jejuni 81-176; DMG 1 mM + CuSO4 64 uM) of 0.19. The OD600 (C. jejuni 81-176; DMG 1 mM + CuSO4 128 uM) was 0.10, the OD600 (C. jejuni 81-176; DMG 1 mM + CuSO4 256 uM) was 0.02 and the OD600 (C. jejuni 81-176; DMG 1 mM + CuSO4 512 uM) was 0.02. For the same compound, the OD600 (C. jejuni 81-176; DMG 1 mM + CuSO4 1024 uM) was 0.04, the OD600 (C. jejuni 81-176; DMG 2 mM + CuSO4 0 uM) was 0.24 and the OD600 (C. jejuni 81-176; DMG 2 mM + CuSO4 2 uM) was 0.34. The OD600 (C. jejuni 81-176; DMG 2 mM + CuSO4 4 uM) was 0.25, the OD600 (C. jejuni 81-176; DMG 2 mM + CuSO4 8 uM) was 0.26 and the OD600 (C. jejuni 81-176; DMG 2 mM + CuSO4 16 uM) was 0.24. For the same compound, the OD600 (C. jejuni 81-176; DMG 2 mM + CuSO4 32 uM) was 0.17, the OD600 (C. jejuni 81-176; DMG 2 mM + CuSO4 64 uM) was 0.01 and the OD600 (C. jejuni 81-176; DMG 2 mM + CuSO4 128 uM) was 0.01. The OD600 (C. jejuni 81-176; DMG 2 mM + CuSO4 256 uM) was 0.01, the OD600 (C. jejuni 81-176; DMG 2 mM + CuSO4 512 uM) was 0.02 and the OD600 (C. jejuni 81-176; DMG 2 mM + CuSO4 1024 uM) was 0.04. For the same compound, the OD600 (C. jejuni 81-176; DMG 4 mM + CuSO4 0 uM) was 0.19, the OD600 (C. jejuni 81-176; DMG 4 mM + CuSO4 2 uM) was 0.26 and the OD600 (C. jejuni 81-176; DMG 4 mM + CuSO4 4 uM) was 0.15. The OD600 (C. jejuni 81-176; DMG 4 mM + CuSO4 8 uM) was 0.04, the OD600 (C. jejuni 81-176; DMG 4 mM + CuSO4 16 uM) was 0.00 and the OD600 (C. jejuni 81-176; DMG 4 mM + CuSO4 32 uM) was 0.00. For the same compound, the OD600 (C. jejuni 81-176; DMG 4 mM + CuSO4 64 uM) was 0.01, the OD600 (C. jejuni 81-176; DMG 4 mM + CuSO4 128 uM) was 0.01 and the OD600 (C. jejuni 81-176; DMG 4 mM + CuSO4 256 uM) was 0.02. The OD600 (C. jejuni 81-176; DMG 4 mM + CuSO4 512 uM) was 0.02, the OD600 (C. jejuni 81-176; DMG 4 mM + CuSO4 1024 uM) was 0.04 and the Urease activity ([1]; DMG 1 mM in LB broth) was 0.05 ± 0.01 μmoles of NH3 produced per minute per mg of total protein. The Urease activity ([1]; DMG 2 mM in LB broth) was 0.03 ± 0.01 μmoles of NH3 produced per minute per mg of total protein, the mortality [2, 3] was 100% and the “postponement of time of death” value [2, 3] was “two”. The mouse survival ([2]; oral 3 mg DMG six hours post-infection then daily for nine days, n=4) was 50%, the mouse survival ([2]; oral 3 mg DMG six hours post-infection then daily for seven days, n=8) was 37.5% and the “bacterial colonization of livers vs non-DMG treated group” value [2, 4] was “Significantly lower”. The “bacterial colonization of spleens vs non-DMG treated group” value [2, 4] was “Significantly lower”.
